# Assay results as given in US20250066341A1 (CHIESI FARMACEUTICI S.P.A., priority 2021, published 2025).
# Target: T1, human recombinant LPA1 expressed in CHO cells (Homo sapiens, UniProt Q92633)
# T1 construct: expressed in transfected cells; host or cells: CHO cells (CHO-hLPA1 cell line)
# Experiment: FLIPR calcium mobilization assay, LPA1 antagonism in CHO-hLPA1 cells
# Assay type: cell-based
# Conditions: inhibition of LPA EC80 Ca2+ response, 30 min pre-incubation, expressed as range of activity
# Experimental: The effectiveness of compounds of the present invention as LPA1 antagonist can be determined at the human recombinant LPA1 expressed in CHO cells, using a FLIPR assay in 384 well format.
# CHO-hLPA1 cell lines are cultured in a humidified incubator at 5% C02 in DMEM/F-12 (1:1) MIXTURE with 2 mM Glutamax, supplemented with 10% of Foetal Bovine Serum, 1 mM Sodium Pyruvate, 11 mM Hepes and 1× Penicillin/Streptomycin. […] Serial dilutions (1:3 or 1:4, 11 points CRC) of compounds are performed in 100% DMSO at 200× the final concentration. […] The final concentration of DMSO in the assay will be 0.5% in each well. Medium is removed by aspiration and cells are then incubated with 30 μl of a loading solution containing 5 μM of the cytoplasmic Ca2+ indicator Cal-520 AM in Assay Buffer containing 2.5 mM probenecid for 30 min at 37° C. incubator (cell loading). The loaded cell plates are transferred into the FLIPR instrument and calcium responses are monitored during the on-line addition protocols. For testing of compounds, after the cell loading, 10 μl/well of 4× antagonists' solution was added onto the cells. After 30 min pre-incubation (at 37° C.), 10 μl/well of 5× concentrated LPA EC80 was added and Ca2+ mobilization responses was followed during the on-line addition protocol. Intracellular peak fluorescence values subtracted by baseline fluorescence are exported and analysed to determine IC50 values, respectively. The calcium response is expressed as percentage of the maximal inhibition of the EC80 agonist response.
# The raw data (peak height expressed as relative fluorescence units) are normalized and transformed into “percent of inhibition”. Curve fitting and pIC50 (−LogIC50) estimations are carried out using a four-parameter logistic model using XLfit Software.
# T1 sequence (Q92633 whole entry): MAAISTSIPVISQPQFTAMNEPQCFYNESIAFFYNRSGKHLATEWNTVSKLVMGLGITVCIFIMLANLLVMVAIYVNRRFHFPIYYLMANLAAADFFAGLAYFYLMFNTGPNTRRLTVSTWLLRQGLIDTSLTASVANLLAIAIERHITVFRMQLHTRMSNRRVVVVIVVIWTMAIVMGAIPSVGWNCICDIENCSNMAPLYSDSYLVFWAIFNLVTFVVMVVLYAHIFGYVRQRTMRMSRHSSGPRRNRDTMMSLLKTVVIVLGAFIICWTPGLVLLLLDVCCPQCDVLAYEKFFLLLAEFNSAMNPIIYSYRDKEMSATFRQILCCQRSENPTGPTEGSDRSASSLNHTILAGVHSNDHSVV
row,Compound,IC50
1,"CCCCNc1cncc(Nc2c(C)noc2-c2ccc(NC(=O)[C@H]3CCCC[C@@H]3C(=O)O)c(C)n2)n1 [Compound 5, (1S,2S)-2-((6-(4-((6-(butylamino)pyrazin-2-yl)amino)-3-methylisoxazol-5-yl)-2-methylpyridin-3-yl)carbamoyl)cyclohexane-1-carboxylic acid]",250 to 600 nM
2,"Cc1nc(-c2onc(C)c2Nc2cncc(C(C)C)n2)ccc1NC(=O)[C@H]1CCCC[C@@H]1C(=O)O [Compound 13, (1S,2S)-2-((6-(4-((6-isopropylpyrazin-2-yl)amino)-3-methylisoxazol-5-yl)-2-methylpyridin-3-yl)carbamoyl)cyclohexane-1-carboxylic acid]",50 to 250 nM
3,"Cc1nc(-c2cnn(C)c2CNc2nccc(OC(C)C)n2)ccc1NC(=O)[C@H]1CCCC[C@@H]1C(=O)O [Compound 17, (1S,2S)-2-((6-(5-(((4-isopropoxypyrimidin-2-yl)amino)methyl)-1-methyl-1H-pyrazol-4-yl)-2-methylpyridin-3-yl)carbamoyl)cyclohexane-1-carboxylic acid]",50 to 250 nM
4,"Cc1nc(-c2onc(C)c2Nc2cncc(-c3cccnc3)n2)ccc1NC(=O)[C@H]1CCCC[C@@H]1C(=O)O [Compound 7, (1S,2S)-2-((2-methyl-6-(3-methyl-4-((6-(pyridin-3-yl)pyrazin-2-yl)amino)isoxazol-5-yl)pyridin-3-yl)carbamoyl)cyclohexane-1-carboxylic acid]",50 to 250 nM
5,"Cc1nc(-c2onc(C)c2NS(=O)(=O)c2ccccc2)ccc1OC[C@H]1CCCC[C@@H]1C(=O)O [Compound 56, (1S,2S)-2-(((2-methyl-6-(3-methyl-4-(phenylsulfonamido)isoxazol-5-yl)pyridin-3-yl)oxy)methyl)cyclohexane-1-carboxylic acid]",250 to 600 nM
6,"COc1cncc(Nc2c(C)noc2-c2ccc(OC[C@H]3CCCC[C@@H]3C(=O)O)c(C)n2)n1 [Compound 53, (1S,2S)-2-(((6-(4-((6-methoxypyrazin-2-yl)amino)-3-methylisoxazol-5-yl)-2-methylpyridin-3-yl)oxy)methyl)cyclohexane-1-carboxylic acid]",50 to 250 nM
7,"CCOc1cncc(Nc2c(C)noc2-c2ccc(OC[C@H]3CCCC[C@@H]3C(=O)O)cn2)n1 [Compound 47, (1S,2S)-2-(((6-(4-((6-ethoxypyrazin-2-yl)amino)-3-methylisoxazol-5-yl)pyridin-3-yl)oxy)methyl)cyclohexane-1-carboxylic acid]",< 50 nM
8,"Cc1noc(-c2ccc(OCC3CCCCC3C(=O)O)cn2)c1NC(=O)O[C@H](C)c1ccccc1Cl (stereo partly drawn) [Compound 79, 2-(((6-(4-((((R)-1-(2-chlorophenyl)ethoxy)carbonyl)amino)-3-methylisoxazol-5-yl)pyridin-3-yl)oxy)methyl)cyclohexane-1-carboxylic acid]",< 50 nM
9,"Cc1nc(-c2nnn(C)c2CNC(=O)O[C@H](C)c2cccnc2Cl)ccc1OC[C@H]1CCCC[C@@H]1C(=O)O [Compound 63, (1S,2S)-2-(((6-(5-(((((R)-1-(2-chloropyridin-3-yl)ethoxy)carbonyl)amino)methyl)-1-methyl-1H-1,2,3-triazol-4-yl)-2-methylpyridin-3-yl)oxy)methyl)cyclohexane-1-carboxylic acid]",< 50 nM
10,"CC(C)Oc1cncc(Nc2c(-c3ccc(NC(=O)C4CCCCC4C(=O)O)cc3)nnn2C)n1 (racemic) [Compound 43, 2-((4-(5-((6-isopropoxypyrazin-2-yl)amino)-1-methyl-1H-1,2,3-triazol-4-yl)phenyl)carbamoyl)cyclohexane-1-carboxylic acid]",50 to 250 nM
11,"Cc1noc(-c2ccc(OC[C@H]3CCCC[C@@H]3C(=O)O)cn2)c1Nc1cncc(OC(C)C)n1 [Compound 48, (1S,2S)-2-(((6-(4-((6-isopropoxypyrazin-2-yl)amino)-3-methylisoxazol-5-yl)pyridin-3-yl)oxy)methyl)cyclohexane-1-carboxylic acid]",< 50 nM
12,"CC(C)Oc1cncc(Nc2c(-c3ccc(NC(=O)[C@H]4CCCC[C@@H]4C(=O)O)cc3)cnn2C)n1 [Compound 20, (1S,2S)-2-((4-(5-((6-isopropoxypyrazin-2-yl)amino)-1-methyl-1H-pyrazol-4-yl)phenyl)carbamoyl)cyclohexane-1-carboxylic acid]",50 to 250 nM
13,Cc1nc(-c2nnn(C)c2NC(=O)O[C@H](C)c2ccccc2Cl)ccc1OC[C@H]1CCCC[C@@H]1C(=O)O [Compound 69],< 50 nM
14,"Cc1nc(-c2onc(C)c2NC(=O)O[C@H](C)c2ccccc2Cl)ccc1OC[C@H]1CCCC[C@@H]1C(=O)O [Compound 80, (1S,2S)-2-(((6-(4-((((R)-1-(2-chlorophenyl)ethoxy)carbonyl)amino)-3-methylisoxazol-5-yl)-2-methylpyridin-3-yl)oxy)methyl)cyclohexane-1-carboxylic acid]",< 50 nM
15,"CCOc1ccnc(NCc2c(C)noc2-c2ccc(NC(=O)[C@H]3CCCC[C@@H]3C(=O)O)c(C)n2)n1 [Compound 36, (1S,2S)-2-((6-(4-(((4-ethoxypyrimidin-2-yl)amino)methyl)-3-methylisoxazol-5-yl)-2-methylpyridin-3-yl)carbamoyl)cyclohexane-1-carboxylic acid]",50 to 250 nM
16,"Cc1nc(-c2onc(C)c2Nc2cncc(OC3CC(F)(F)C3)n2)ccc1NC(=O)[C@H]1CCCC[C@@H]1C(=O)O [Compound 3, (1S,2S)-2-((6-(4-((6-(3,3-difluorocyclobutoxy)pyrazin-2-yl)amino)-3-methylisoxazol-5-yl)-2-methylpyridin-3-yl)carbamoyl)cyclohexane-1-carboxylic acid]",50 to 250 nM
17,"Cc1nc(-c2onc(C)c2CNc2nccc(-c3ccsc3)n2)ccc1NC(=O)[C@H]1CCCC[C@@H]1C(=O)O [Compound 39, (1S,2S)-2-((2-methyl-6-(3-methyl-4-(((4-(thiophen-3-yl)pyrimidin-2-yl)amino)methyl)isoxazol-5-yl)pyridin-3-yl)carbamoyl)cyclohexane-1-carboxylic acid]",< 50 nM

# Continued, values first:
row,IC50,Compound
1,< 50 nM,"Cc1nc(-c2nnn(C)c2CNc2nccc(OC(C)C)n2)ccc1OC[C@H]1CCCC[C@@H]1C(=O)O [Compound 66, (1S,2S)-2-(((6-(5-(((4-isopropoxypyrimidin-2-yl)amino)methyl)-1-methyl-1H-1,2,3-triazol-4-yl)-2-methylpyridin-3-yl)oxy)methyl)cyclohexane-1-carboxylic acid]"
2,< 50 nM,"Cc1nc(-c2nnn(C)c2CNc2nccc(C3CCCCC3)n2)ccc1NC(=O)[C@H]1CCCC[C@@H]1C(=O)O [Compound 44, (1S,2S)-2-((6-(5-(((4-cyclohexylpyrimidin-2-yl)amino)methyl)-1-methyl-1H-1,2,3-triazol-4-yl)-2-methylpyridin-3-yl)carbamoyl)cyclohexane-1-carboxylic acid]"
3,< 50 nM,"Cc1noc(-c2ccc(OCC3CCCCC3C(=O)O)cn2)c1NC(=O)O[C@H](C)c1ccccc1Cl (single isomer, unassigned) [Compound 81]"
4,< 50 nM,"CCC[C@@H](C)OC(=O)Nc1c(-c2ccc(OC[C@H]3CCCC[C@@H]3C(=O)O)c(C)n2)nnn1C [Compound 68, (1S,2S)-2-(((2-methyl-6-(1-methyl-5-(((((R)-pentan-2-yl)oxy)carbonyl)amino)-1H-1,2,3-triazol-4-yl)pyridin-3-yl)oxy)methyl)cyclohexane-1-carboxylic acid]"
5,< 50 nM,"CCCN(C)C(=O)OCc1c(C)noc1-c1ccc(OC[C@H]2CCCC[C@@H]2C(=O)O)c(C)n1 [Compound 75, (1S,2S)-2-(((2-methyl-6-(3-methyl-4-(((methyl(propyl)carbamoyl)oxy)methyl)isoxazol-5-y1)pyridin-3-yl)oxy)methyl)cyclohexane-1-carboxylic acid]"
6,< 50 nM,"CCCc1cncc(Nc2c(C)noc2-c2ccc(OC[C@H]3CCCC[C@@H]3C(=O)O)c(C)n2)n1 [Compound 54, (1S,2S)-2-(((2-methyl-6-(3-methyl-4-((6-propylpyrazin-2-yl)amino)isoxazol-5-yl)pyridin-3-yl)oxy)methyl)cyclohexane-1-carboxylic acid]"
7,< 50 nM,"Cc1nc(-c2onc(C)c2NS(=O)(=O)CCOc2ccc(F)cc2)ccc1OC[C@H]1CCCC[C@@H]1C(=O)O [Compound 55, (1S,2S)-2-(((6-(4-((2-(4-fluorophenoxy)ethyl)sulfonamido)-3-methylisoxazol-5-yl)-2-methylpyridin-3-yl)oxy)methyl)cyclohexane-1-carboxylic acid]"
8,< 50 nM,"Cc1nc(-c2onc(C)c2NS(=O)(=O)CC(C)c2ccccc2)ccc1NC(=O)[C@H]1CCCC[C@@H]1C(=O)O (single isomer, unassigned) [Compound 30]"
9,< 50 nM,"Cc1nc(-c2cnn(C)c2CNc2nccc(-c3ccccc3)n2)ccc1NC(=O)[C@H]1CCCC[C@@H]1C(=O)O [Compound 19, (1S,2S)-2-((2-methyl-6-(1-methyl-5-(((4-phenylpyrimidin-2-yl)amino)methyl)-1H-pyrazol-4-yl)pyridin-3-yl)carbamoyl)cyclohexane-1-carboxylic acid]"
